Columns and labels:
[1] = test system: blood mononucleated cells from healthy donor
[2] = test system: blood mononucleated cells from healthy donor inoculated with MS virion fraction; format: cell-based, human

## Cc1cn([C@H]2C[C@H](N=[N+]=[N-])[C@@H](CO)O2)c(=O)[nH]c1=O [AZT, azidodeoxythymidine]
[1]
  cell mortality (toxicity tests, compound alone): no significant cell mortality
[2]
  Vβ16 expansion of the lymphocytes (FACS analysis of T subpopulations): an absence or an inhibition of Vβ16 expansion

## O=c1[nH]cnc2c1ncn2[C@H]1CC[C@@H](CO)O1 [DDI, dideoxyinosine]
[2]
  Vβ16 expansion of the lymphocytes (FACS analysis of T subpopulations): an absence of Vβ16 expansion

From US20060088820A1 (priority 1999, published 2006)
